Legend:
HeLa cells = experiment: Transfection with pCMV-CAT, CAT-Elisa, HeLa cells; assay type: cell-based, human; conditions: relative to DOTAP = 1, pCMV-CAT plasmid
Text: (§1) The testing of DOTAP or the compounds of the invention comprises transfection of the test cells, protein determination by means of the BCA method (Pierce) and carrying out a CAT Elisa and these are described here using DOTAP (Boehringer Mannheim) as an example. After ultrasonication the cationic lipid DOTAP forms unilamellar vesicles (liposomes) in aqueous solution which spontaneously form stable complexes with the DNA (pCMV-CAT). These complexes adhere to the cell surface, fuse with the cell membrane and pCMV-CAT is released into the cytoplasm. The transiently expressed CAT is detected in the cell lysate.
HeLa, human cancer epithelial cell line from the cervix, ATCC CCL 2
(§2) The composition of the test medium used for the respective cell line corresponds with that of the respective culture medium, only the content of FCS is reduced by 50% (only 5% FCS instead of 10%). […]
(§3) The CAT (chloroamphenicol acetyl transferase)-Elisa serves to quantitatively determine the CAT expression in eukaryotic cells after transfection with a plasmid that contains CAT as the reporter gene. […] Anti-CAT-DIG is detected in the third step by a peroxidase-labelled antibody against digoxigenin (Anti-DIG-POD) and visualized in a subsequent substrate reaction. […]
(§4) The microtitre plate is measured at 405 nm and a reference wavelength of 492 nm with an Elisa reader.

Calu cells = experiment: Transfection with pCMV-CAT, CAT-Elisa, Calu cells; assay type: cell-based, human; conditions: relative to DOTAP = 1, pCMV-CAT plasmid
Text: as §1
CALU 1, human cancer epithelial cell line from the lung, ECACC 93120818 or another suitable test cell line
as §2, §3, §4

CCCCCCCCCCCCCC(=O)OCCN(CCOC(=O)CCCCCCCCCCCCC)CC1CCN(CCCN(C)C)CC1 [Example 34, Tetradecanoic acid-2-{(2-tetradecanoyloxy-ethyl)-[1-(3-dimethylamino-propyl)-piperidin-4-yl-methyl]-amino}-ethyl ester]
relative transfection efficiency in a CAT-Assay (DOTAP = 1) (HeLa cells): 3.2 | relative transfection efficiency in a CAT-Assay (DOTAP = 1) (Calu cells): 3.9

CCCCCCCCCCCCCC(=O)OCCN(CCCCNCCCN)CCOC(=O)CCCCCCCCCCCCC [Example 60, Tetradecanoic acid-2-{[4-(3-amino-propylamino)-butyl]-(2-tetradecanoyloxy-ethyl)-amino}-ethyl ester]
relative transfection efficiency in a CAT-Assay (DOTAP = 1) (HeLa cells): 3.2 | relative transfection efficiency in a CAT-Assay (DOTAP = 1) (Calu cells): 3.4

CCCCCCCCCCCC(=O)OCCN(CCCNCCCN)CCOC(=O)CCCCCCCCCCC.Cl
melting point: 245 to 246 °C
